Patent US6187807A, “Methods of use and compositions of (S) (-)-amisulpride” (Sanofi-Synthelabo, priority 1999, dated 2001)

Tests used:
in vivo [1] = settings: rat, ip, 20 min recording, 30 min after drug, read-out: Decrease in spontaneous locomotor activity (ED50)
Method: (§1) The propensity of the drugs to induce extrapyramidal side effects was assessed by measuring their potential to induce catalepsy and to antagonize apomorphine-induced stereotyped behaviour and the sedative potential of the drugs was evaluated by their capacity to decrease spontaneous locomotor activity in the rat.
Spontaneous locomotor activity was measured for 20 min immediately after rats were placed in the activity cages, 30 min after drug treatment.

in vivo [2] = settings: rat, ip, measured 2 hours and 4 hours after drug, read-out: Induction of catalepsy (ED50)
Method: as §1
The occurrence of catalepsy in rats was assessed using the four-cork test. This measurement was performed by placing each paw of the rat on a 2.5 cm high cork (diameter 1.2 cm). Distance between contralateral corks was 8 cm and between ipsilateral corks 13 cm. Catalepsy time was measured for a maximum of 2 min at 2 hours, and 4 hours after ip drug treatment.

[3] = test system: apomorphine-induced hypermotility; test: Antagonism of apomorphine-induced hypermotility; settings: Rattus norvegicus, ip, 0.5 h, read-out: Antagonism of apomorphine-induced hypermotility (ED50)
Excerpt: These experimental conditions produce low baseline locomotor activity suitable for assessing increases in locomotion produced by apomorphine.

[4] = test system: d-amphetamine-induced hypermotility; test: Antagonism of d-amphetamine-induced hypermotility; settings: for ED50: Rattus norvegicus, ip, 0.5 h, read-out: Antagonism of d-amphetamine-induced hypermotility (ED50)
Method: d-Amphetamine-induced hyperactivity was recorded for 20 min, 30 min after injection of d-amphetamine (2 mg/kg, ip) immediately after placing rats in the activity cages without habituation according to Gh.

[5] = Antagonism of apomorphine-induced stereotypies; assay type: in vivo; settings: rat, in vivo; ip; apomorphine 0.5 mg/kg sc, 30 min after drug
Method: as §1
(§2) For scoring stereotypies, the following scale was used: 0: asleep; 1: awake; quiet; 2: locomotion, head bobbing; 3: sniffing; 4: licking; 5: chewing/gnawing. For each rat, a global score was calculated by averaging the 3 stereotypy scores obtained at 10 min intervals.

[6] = test system: apomorphine-induced stereotypies; test: Antagonism of apomorphine-induced stereotypies; assay type: in vivo; settings: comparison in words
Method: as §1, §2

Row | SMILES | ED50 (in vivo [1]) [mg/kg] | ED50 (in vivo [2]) [mg/kg] | ED50 [3] [mg/kg] | ED50 [4] [mg/kg] | ED50 [5] [mg/kg] | Potency at antagonizing apomorphine-induced stereotypies, (S)(-)-amisulpride compared with (R,S)-amisulpride [6] | Potency in tests predictive of antipsychotic activity, compared with (R,S)-amisulpride ([4]; antagonism of apomorphine or amphetamine hyperlocomotion, in words)
1 | CCN1CCCC1CNC(=O)c1cc(S(=O)(=O)CC)c(N)cc1OC (racemic) [(R,S)-amisulpride, reference compound] | 100 | > 100 | 30 | 3 | 115 | equipotent | 
2 | CCN1CCC[C@H]1CNC(=O)c1cc(S(=O)(=O)CC)c(N)cc1OC [(S)(-)-amisulpride, (S)-(-)-4-amino-N-[(1-ethylpyrrolidin-2-yl)methyl]-5-(ethylsulfonyl)-2-methoxybenzamide] | 100 | > 100 | 15 | 1.2 | 100 | equipotent | twice as potent
